Molecular target: T1, integrin α4β7 (RPMI8866 human cells adhering to MAdCAM-1) (Homo sapiens, UniProt P13612+P26010)
T1 construct: RMP18866 cells, which express integrin α4β7; host or cells: RPMI8866
T1 sequence (P13612 34-1032): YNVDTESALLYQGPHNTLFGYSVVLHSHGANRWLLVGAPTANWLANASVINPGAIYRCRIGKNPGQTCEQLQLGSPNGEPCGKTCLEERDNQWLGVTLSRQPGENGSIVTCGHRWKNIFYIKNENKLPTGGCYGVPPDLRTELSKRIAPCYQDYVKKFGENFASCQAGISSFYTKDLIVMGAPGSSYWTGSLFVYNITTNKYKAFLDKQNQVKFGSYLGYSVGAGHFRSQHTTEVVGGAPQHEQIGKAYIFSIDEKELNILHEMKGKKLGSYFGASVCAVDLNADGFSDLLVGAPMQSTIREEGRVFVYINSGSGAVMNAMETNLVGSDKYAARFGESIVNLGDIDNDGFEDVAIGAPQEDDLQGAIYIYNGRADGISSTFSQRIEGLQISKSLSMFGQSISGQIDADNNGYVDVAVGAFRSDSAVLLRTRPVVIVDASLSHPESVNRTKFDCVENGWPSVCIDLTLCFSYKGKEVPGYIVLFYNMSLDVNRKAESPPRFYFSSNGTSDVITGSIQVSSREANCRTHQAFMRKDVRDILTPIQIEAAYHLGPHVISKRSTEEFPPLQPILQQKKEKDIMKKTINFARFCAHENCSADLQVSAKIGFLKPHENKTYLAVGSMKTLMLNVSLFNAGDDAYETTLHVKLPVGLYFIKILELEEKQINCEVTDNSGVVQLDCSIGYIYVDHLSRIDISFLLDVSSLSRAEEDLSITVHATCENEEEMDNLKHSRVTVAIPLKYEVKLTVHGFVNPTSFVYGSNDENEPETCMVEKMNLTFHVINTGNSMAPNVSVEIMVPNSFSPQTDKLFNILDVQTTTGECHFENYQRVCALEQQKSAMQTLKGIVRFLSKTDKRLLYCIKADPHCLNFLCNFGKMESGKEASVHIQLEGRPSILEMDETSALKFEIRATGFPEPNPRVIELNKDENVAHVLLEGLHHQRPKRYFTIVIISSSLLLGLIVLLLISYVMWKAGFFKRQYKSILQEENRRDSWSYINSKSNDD
T1 sequence (P26010 20-798): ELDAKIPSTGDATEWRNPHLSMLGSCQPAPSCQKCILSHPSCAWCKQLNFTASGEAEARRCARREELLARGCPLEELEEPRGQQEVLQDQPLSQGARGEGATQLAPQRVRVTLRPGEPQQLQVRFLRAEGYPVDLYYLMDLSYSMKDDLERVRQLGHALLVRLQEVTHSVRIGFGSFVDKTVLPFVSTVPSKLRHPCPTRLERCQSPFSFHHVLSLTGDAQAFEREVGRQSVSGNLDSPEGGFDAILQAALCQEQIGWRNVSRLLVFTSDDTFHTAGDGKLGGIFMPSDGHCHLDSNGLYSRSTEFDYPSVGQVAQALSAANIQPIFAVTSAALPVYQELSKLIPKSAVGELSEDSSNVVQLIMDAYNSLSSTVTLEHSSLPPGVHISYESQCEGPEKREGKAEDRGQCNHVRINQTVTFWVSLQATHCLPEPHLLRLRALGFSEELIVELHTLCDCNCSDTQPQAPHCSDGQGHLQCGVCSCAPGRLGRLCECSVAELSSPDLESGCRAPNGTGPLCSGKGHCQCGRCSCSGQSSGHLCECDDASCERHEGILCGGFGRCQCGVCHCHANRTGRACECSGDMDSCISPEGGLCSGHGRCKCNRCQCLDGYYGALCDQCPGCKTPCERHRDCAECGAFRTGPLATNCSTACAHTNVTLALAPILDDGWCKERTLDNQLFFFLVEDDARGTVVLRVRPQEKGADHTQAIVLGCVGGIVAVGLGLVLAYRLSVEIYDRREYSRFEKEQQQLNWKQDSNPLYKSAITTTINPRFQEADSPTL
Test: Integrin α4β7-MAdCAM cell adhesion assay (RPMI8866 cells)
Type: cell-based
Conditions: RPMI8866 cells adhering to MAdCAM; read-out: RPMI8866 Adhesion α4β7/MAdCAM IC50
Protocol: Integrin α4β7-MAdCAM Cell Adhesion Assay
RPMI8866 cells were resuspended at 10 million cells/ml in PBS containing […] and incubated at 37° C. for 30 min in a 50 ml tube. […] The plate was emptied by inverting and blotting on paper towels and washed manually twice with PBS. 100 μl PBS was then added to each well. […] To calculate the dose response, the fluorescence value of control wells not containing cells was subtracted from each test well.

| IC50 | Compound |
| --- | --- |
| 31 nM | CC(C)C[C@@H]1NC(=O)c2ccc(-c3ccc(N4CCN(C(=O)CCOCCOCCOCCOCCOCCC(=O)N5CCN(c6ccc(-c7ccc8cc7CNC(=O)[C@@H]7CCCN7[C@H](C(=O)NC(C)(C)C)[C@H](C)NC(=O)[C@H]([C@@H](C)O)NC(=O)[C@H](CC(=O)O)NC(=O)[C@H](CC(C)C)NC8=O)cc6)CC5)CC4)cc3)c(c2)CNC(=O)[C@@H]2CCCN2[C@H](C(=O)NC(C)(C)C)[C@H](C)NC(=O)[C@H]([C@@H](C)O)NC(=O)[C@H](CC(=O)O)NC1=O [Compound 509] |
| 46 nM | CC(C)C[C@@H]1NC(=O)c2ccc(-c3ccc(N4CCN(C(=O)COCCOCCOCC(=O)N5CCN(c6ccc(-c7ccc8cc7CNC(=O)[C@@H]7CCCN7[C@H](C(=O)NC(C)(C)C)[C@H](C)NC(=O)[C@H]([C@@H](C)O)NC(=O)[C@H](CC(=O)O)NC(=O)[C@H](CC(C)C)NC8=O)cc6)CC5)CC4)cc3)c(c2)CNC(=O)[C@@H]2CCCN2[C@H](C(=O)NC(C)(C)C)[C@H](C)NC(=O)[C@H]([C@@H](C)O)NC(=O)[C@H](CC(=O)O)NC1=O [Compound 508] |
| 42 nM | CC(C)C[C@@H]1NC(=O)c2ccc(-c3ccc(N4CCN(C(=O)CCOCCOCCOCCOCCOCCOCCOCCOCCOCCOCCOCCOCCOCCC(=O)N5CCN(c6ccc(-c7ccc8cc7CNC(=O)[C@@H]7CCCN7[C@H](C(=O)NC(C)(C)C)[C@H](C)NC(=O)[C@H]([C@@H](C)O)NC(=O)[C@H](CC(=O)O)NC(=O)[C@H](CC(C)C)NC8=O)cc6)CC5)CC4)cc3)c(c2)CNC(=O)[C@@H]2CCCN2[C@H](C(=O)NC(C)(C)C)[C@H](C)NC(=O)[C@H]([C@@H](C)O)NC(=O)[C@H](CC(=O)O)NC1=O [Compound 504] |
| 23 nM | CC(C)C[C@@H]1NC(=O)C[C@H](CCCCN)N(C)C(=O)[C@H](CCCCNC(=O)CCC(=O)NCCCC[C@@H]2NC(=O)[C@@H]3CCCN3[C@H](C(=O)NC(C)(C)C)[C@H](C)NC(=O)[C@H]([C@@H](C)O)NC(=O)[C@H](CC(=O)O)NC(=O)[C@H](CC(C)C)NC(=O)C[C@H](CCCCN)N(C)C2=O)NC(=O)[C@@H]2CCCN2[C@H](C(=O)NC(C)(C)C)[C@H](C)NC(=O)[C@H]([C@@H](C)O)NC(=O)[C@H](CC(=O)O)NC1=O [Compound 531] |

Further lines, the compound ahead of its results:

| Compound | IC50 |
| --- | --- |
| CC(C)C[C@@H]1NC(=O)c2ccc(-c3ccc(N4CCN(C(=O)CC(=O)N5CCN(c6ccc(-c7ccc8cc7CNC(=O)[C@@H]7CCCN7[C@H](C(=O)NC(C)(C)C)[C@H](C)NC(=O)[C@H]([C@@H](C)O)NC(=O)[C@H](CC(=O)O)NC(=O)[C@H](CC(C)C)NC8=O)cc6)CC5)CC4)cc3)c(c2)CNC(=O)[C@@H]2CCCN2[C@H](C(=O)NC(C)(C)C)[C@H](C)NC(=O)[C@H]([C@@H](C)O)NC(=O)[C@H](CC(=O)O)NC1=O [Compound 483] | 29 nM |
| CC(C)C[C@@H]1NC(=O)c2ccc(-c3ccc(N4CCN(C(=O)c5ccc(C(=O)N6CCN(c7ccc(-c8ccc9cc8CNC(=O)[C@@H]8CCCN8[C@H](C(=O)NC(C)(C)C)[C@H](C)NC(=O)[C@H]([C@@H](C)O)NC(=O)[C@H](CC(=O)O)NC(=O)[C@H](CC(C)C)NC9=O)cc7)CC6)c6ccccc56)CC4)cc3)c(c2)CNC(=O)[C@@H]2CCCN2[C@H](C(=O)NC(C)(C)C)[C@H](C)NC(=O)[C@H]([C@@H](C)O)NC(=O)[C@H](CC(=O)O)NC1=O [Compound 463] | 21 nM |
| CC(C)C[C@@H]1NC(=O)[C@H]2Cc3ccccc3CN2C(=O)[C@H](Cc2cccc(CNC(=O)CCCCCCC(=O)NCc3cccc(C[C@@H]4NC(=O)[C@@H]5CCCN5[C@H](C(=O)NC(C)(C)C)[C@H](C)NC(=O)[C@H]([C@@H](C)O)NC(=O)[C@H](CC(=O)O)NC(=O)[C@H](CC(C)C)NC(=O)[C@H]5Cc6ccccc6CN5C4=O)c3)c2)NC(=O)[C@@H]2CCCN2[C@H](C(=O)NC(C)(C)C)[C@H](C)NC(=O)[C@H]([C@@H](C)O)NC(=O)[C@H](CC(=O)O)NC1=O [Compound 528] | 47 nM |
| CC(C)C[C@@H]1NC(=O)c2ccc(-c3ccc(N4CCN(C(=O)Cc5ccccc5C(=O)N5CCN(c6ccc(-c7ccc8cc7CNC(=O)[C@@H]7CCCN7[C@H](C(=O)NC(C)(C)C)[C@H](C)NC(=O)[C@H]([C@@H](C)O)NC(=O)[C@H](CC(=O)O)NC(=O)[C@H](CC(C)C)NC8=O)cc6)CC5)CC4)cc3)c(c2)CNC(=O)[C@@H]2CCCN2[C@H](C(=O)NC(C)(C)C)[C@H](C)NC(=O)[C@H]([C@@H](C)O)NC(=O)[C@H](CC(=O)O)NC1=O [Compound 496] | 41 nM |
| CC(C)C[C@@H]1NC(=O)[C@H]2CCCCN2C(=O)[C@H](Cc2ccc(CNC(=O)CCCCCC(=O)NCc3ccc(C[C@@H]4NC(=O)[C@@H]5CCCN5[C@H](C(=O)NC(C)(C)C)[C@H](C)NC(=O)[C@H]([C@@H](C)O)NC(=O)[C@H](CC(=O)O)NC(=O)[C@H](CC(C)C)NC(=O)[C@H]5CCCCN5C4=O)cc3)cc2)NC(=O)[C@@H]2CCCN2[C@H](C(=O)NC(C)(C)C)[C@H](C)NC(=O)[C@H]([C@@H](C)O)NC(=O)[C@H](CC(=O)O)NC1=O [Compound 524] | 447 nM |
| CC(C)C[C@@H]1NC(=O)c2ccc(-c3ccc(N4CCN(C(=O)c5cccc(C(=O)N6CCN(c7ccc(-c8ccc9cc8CNC(=O)[C@@H]8CCCN8[C@H](C(=O)NC(C)(C)C)[C@H](C)NC(=O)[C@H]([C@@H](C)O)NC(=O)[C@H](CC(=O)O)NC(=O)[C@H](CC(C)C)NC9=O)cc7)CC6)n5)CC4)cc3)c(c2)CNC(=O)[C@@H]2CCCN2[C@H](C(=O)NC(C)(C)C)[C@H](C)NC(=O)[C@H]([C@@H](C)O)NC(=O)[C@H](CC(=O)O)NC1=O [Compound 472] | 80 nM |
| CC(C)C[C@@H]1NC(=O)c2ccc(-c3ccc(N4CCN(C(=O)C5(C(=O)N6CCN(c7ccc(-c8ccc9cc8CNC(=O)[C@@H]8CCCN8[C@H](C(=O)NC(C)(C)C)[C@H](C)NC(=O)[C@H]([C@@H](C)O)NC(=O)[C@H](CC(=O)O)NC(=O)[C@H](CC(C)C)NC9=O)cc7)CC6)CC5)CC4)cc3)c(c2)CNC(=O)[C@@H]2CCCN2[C@H](C(=O)NC(C)(C)C)[C@H](C)NC(=O)[C@H]([C@@H](C)O)NC(=O)[C@H](CC(=O)O)NC1=O [Compound 459] | 33 nM |
| CC(C)C[C@@H]1NC(=O)c2ccc(-c3ccc(N4CCN(C(=O)CCSCCC(=O)N5CCN(c6ccc(-c7ccc8cc7CNC(=O)[C@@H]7CCCN7[C@H](C(=O)NC(C)(C)C)[C@H](C)NC(=O)[C@H]([C@@H](C)O)NC(=O)[C@H](CC(=O)O)NC(=O)[C@H](CC(C)C)NC8=O)cc6)CC5)CC4)cc3)c(c2)CNC(=O)[C@@H]2CCCN2[C@H](C(=O)NC(C)(C)C)[C@H](C)NC(=O)[C@H]([C@@H](C)O)NC(=O)[C@H](CC(=O)O)NC1=O [Compound 473] | 63 nM |
| CC(C)C[C@@H]1NC(=O)c2ccc(-c3ccc(N4CCN(C(=O)CN(C)CC(=O)N5CCN(c6ccc(-c7ccc8cc7CNC(=O)[C@@H]7CCCN7[C@H](C(=O)NC(C)(C)C)[C@H](C)NC(=O)[C@H]([C@@H](C)O)NC(=O)[C@H](CC(=O)O)NC(=O)[C@H](CC(C)C)NC8=O)cc6)CC5)CC4)cc3)c(c2)CNC(=O)[C@@H]2CCCN2[C@H](C(=O)NC(C)(C)C)[C@H](C)NC(=O)[C@H]([C@@H](C)O)NC(=O)[C@H](CC(=O)O)NC1=O [Compound 501] | 38 nM |

— patent US11713338B2, “Cyclic peptides multimers targeting α-4-β-7 integrin” (priority 2016, dated 2023)
